We go through five compounds from patent US9868758B2, “Betulinic proline imidazole derivatives as HIV inhibitors” (HETERO LABS LIMITED, priority 2014, dated 2018).

Series [1] concerns HIV-1 strains, for e.g., 92HT599. Nature of the series: Antiviral activity: p24 estimation in HIV-1 infected MT-2 cells. The conditions noted are these: Human immunodeficiency virus 1, MT2, MT-2 cells; for inhibition at 0.01 µM / inhibition at 0.1 µM / inhibition at 1 µM: p24, ~96 hours; for IC50: p24, read-out: Antiviral activity IC50. Type of series: cell-based. On the procedure: MT-2 cells were infected with required number of TCID50's of HIV-1 strains, for e.g., 92HT599. The infected cells were plated at the concentration of 30,000 cells per well in a 96 well plate. Test compound was added to the 96 well plate with the final concentration of DMSO (vehicle—not more than 1%). The plates are then incubated in a CO2 incubator for ˜96 hours (˜4 days) for viral infection. At the end of incubation period an aliquot from each well was taken for p24 estimation. The quantitation of p24 is an estimated index for antiviral activity of the compound. Percent inhibition was calculated with reference to control values (vehicle controls).
p-24 estimation was carried out using Advance biosciences kit as per the procedure detailed by supplier.

Series [2] can be described thus: Cyto-toxicity, MTT assay. The conditions noted are these: read-out: Cytotoxicity % viability. Type of series: cell-based. In general terms: Tetrazolium assays rely on reduction of a dye to a coloured formazan, in cell work by metabolically active cells.
Protocol: On day 1 calculate the number of cells required for the assay and seed 3×10^4 cells in 200 μl per well. Weigh the compound and dissolve it in DMSO to get 10 mM stock which is further diluted to 3 mM and 1 mM. The drugs from these stocks were added to plate to get final concentration of 100 μM, 30 μM and 10 μM. […] Incubate for 4 days in 5% CO2 incubator at 37° C. On day 4, 100 μl of medium was removed from each well without disturbing the cells. Add 10 μl of MTT reagent and incubate for 4 hours at 5% CO2 incubator at 37° C. for formation of crystals. Add 200 μl of 0.1N acidic isopropanol to dissolve the crystals and read the plate at 590 nm.
Series [3] is described as follows: Single dose oral pharmacokinetic study. On the set-up: species or system mice. The conditions noted are these: mouse, in vivo, po, 30 mg/kg. On the procedure:
The test item was administered through oral route to animals (rat/mice) at 30 mg/kg dose in a suitable vehicle at 10 ml/kg dose volume. Blood samples (˜50 uL at each time point) were collected from retro-orbital plexus using K3 EDTA as anticoagulant in eppendorf tubes at defined time intervals under light ether anesthesia. The samples were centrifuged at 3500×g to separate plasma and stored at −80° C. until analysis.
Sample analysis: Test samples were analyzed using LC-MS-MS after developing fit-for-purpose method for each of test compound.

Molecules are shown by their SMILES.

For `C=C(C)[C@@H]1CC[C@]2(C(=O)N3C[C@H](OCCOC)C[C@H]3c3nc(-c4cccc(F)c4)cn3CCN3CCCC3)CC[C@]3(C)[C@H](CC[C@@H]4[C@@]5(C)CC[C@H](OC(=O)[C@H]6C[C@@H](C(=O)O)C6(C)C)C(C)(C)[C@@H]5CC[C@]43C)[C@@H]12` [Compound 28, (1R,3S)-3-((((1R,3aS,5aR,5bR,7aR,9S,11aR,11bR,13aR,13bR)-3a-((2S,4R)-2-(4-(3-fluorophenyl)-1-(2-(pyrrolidin-1-yl)ethyl)-1H-imidazol-2-yl)-4-(2-methoxyethoxy)pyrrolidine-1-carbonyl)-5a,5b,8,8,11a-pentamethyl-1-(prop-1-en-2-yl)icosahydro-1H-cyclopenta[a]chrysen-9-yl)oxy)carbonyl)-2,2-dimethylcyclobutane-1-carboxylic acid], in series [1], the inhibition at 0.01 µM is 13%, the inhibition at 0.1 µM was 98%, the inhibition at 1 µM is 100% and the IC50 was 39.6 nM. Further, in series [2], the viability at 4 days, 0.01 µM came out at 65%; the viability at 4 days, 0.1 µM was 19%; the viability at 4 days, 1 µM stood at 6%. In series [3], this compound had an AUC(0-t) of 293 µg·h/mL and a Cmax of 7300 ng/mL.

With `C=C(C)[C@@H]1CC[C@]2(C(=O)N3CCC[C@H]3c3nc4ccccc4n3CCN(C)C)CC[C@]3(C)[C@H](CC[C@@H]4[C@@]5(C)CC[C@H](OC(=O)[C@H]6C[C@@H](C(=O)O)C6(C)C)C(C)(C)[C@@H]5CC[C@]43C)[C@@H]12` [Compound 29, (1R,3S)-3-((((1R,3aS,5aR,5bR,7aR,9S,11aR,11bR,13aR,13bR)-3a-((S)-2-(1-(2-(dimethylamino)ethyl)-1H-benzo[d]imidazol-2-yl)pyrrolidine-1-carbonyl)-5a,5b,8,8,11a-pentamethyl-1-(prop-1-en-2-yl)icosahydro-1H-cyclopenta[a]chrysen-9-yl)oxy)carbonyl)-2,2-dimethylcyclobutane-1-carboxylic acid], in series [1], the inhibition at 0.01 µM is 0%, the inhibition at 0.1 µM is 100%, the inhibition at 1 µM was 100% and the IC50 was 9.76 nM. For the same compound, in series [2], the viability at 4 days, 0.01 µM stood at 31%; the viability at 4 days, 0.1 µM stood at 1%; the viability at 4 days, 1 µM was determined as 5%. In series [3], this compound showed an AUC(0-t) of 491 µg·h/mL and a Cmax of 14900 ng/mL.

On to `C=C(C)[C@@H]1CC[C@]2(C(=O)N3CCC[C@H]3c3nc(-c4ccccc4)cn3CCP(=O)(O)O)CC[C@]3(C)[C@H](CC[C@@H]4[C@@]5(C)CC[C@H](OC(=O)[C@H]6C[C@@H](C(=O)O)C6(C)C)C(C)(C)[C@@H]5CC[C@]43C)[C@@H]12` [Compound 23, (1R,3S)-2,2-dimethyl-3-((((1R,3aS,5aR,5bR,7aR,9S,11aR,11bR,13aR,13bR)-5a,5b,8,8,11a-pentamethyl-3a-((S)-2-(4-phenyl-1-(2-phosphonoethyl)-1H-imidazol-2-yl)pyrrolidine-1-carbonyl)-1-(prop-1-en-2-yl)icosahydro-1H-cyclopenta[a]chrysen-9-yl)oxy)carbonyl)cyclo butane-1-carboxylic acid], for which, in series [1], the inhibition at 0.01 µM was 24%, the inhibition at 0.1 µM is 21% and the inhibition at 1 µM was 66%. In addition, the viability at 4 days, 10 µM in series [2] (10 μM) came to 88%. In addition, the viability at 4 days, 30 µM in series [2] (30 μM) is 77%. The viability at 4 days, 100 µM in series [2] (100 μM) came out at 66%.

For `C=C(C)[C@@H]1CC[C@]2(C(=O)N3CCC[C@H]3c3nc4ccccc4n3CCN3CCCC3)CC[C@]3(C)[C@H](CC[C@@H]4[C@@]5(C)CC[C@H](OC(=O)[C@H]6C[C@@H](C(=O)O)C6(C)C)C(C)(C)[C@@H]5CC[C@]43C)[C@@H]12` [Compound 30, (1R,3S)-2,2-dimethyl-3-((((1R,3aS,5aR,5bR,7aR,9S,11aR,11bR,13aR,13bR)-5a,5b,8,8,11a-pentamethyl-1-(prop-1-en-2-yl)-3a-((S)-2-(1-(2-(pyrrolidin-1-yl)ethyl)-1H-benzo[d]imidazol-2-yl)pyrrolidine-1-carbonyl)icosahydro-1H-cyclopenta[a]chrysen-9-yl)oxy)carbonyl)cyclobutane-1-carboxylic acid], in series [1], the inhibition at 0.01 µM is 71%, the inhibition at 0.1 µM was 100%, the inhibition at 1 µM was 100% and the IC50 was 10.2 nM. Also, in series [2], the viability at 4 days, 0.01 µM is 33%; the viability at 4 days, 0.1 µM turned out to be 3%; the viability at 4 days, 1 µM worked out at 5%. Further, in series [3], the AUC(0-t) stood at 546 µg·h/mL and the Cmax stood at 14800 ng/mL.

Take `C=C(C)[C@@H]1CC[C@]2(C(=O)N3C[C@H](OCCOC)C[C@H]3c3nc(-c4ccccc4)cn3CCN3CCCC3)CC[C@]3(C)[C@H](CC[C@@H]4[C@@]5(C)CC[C@H](OC(=O)[C@H]6C[C@@H](C(=O)O)C6(C)C)C(C)(C)[C@@H]5CC[C@]43C)[C@@H]12` [Compound 27, (1R,3S)-3-((((1R,3aS,5aR,5bR,7aR,9S,11aR,11bR,13aR,13bR)-3a-((2S,4R)-4-(2-methoxyethoxy)-2-(4-phenyl-1-(2-(pyrrolidin-1-yl)ethyl)-1H-imidazol-2-yl)pyrrolidine-1-carbonyl)-5a,5b,8,8,11a-pentamethyl-1-(prop-1-en-2-yl)icosahydro-1H-cyclopenta[a]chrysen-9-yl)oxy)carbonyl)-2,2-dimethylcyclobutane-1-carboxylic acid]: in series [1], the inhibition at 0.01 µM was 0%, the inhibition at 0.1 µM was 100%, the inhibition at 1 µM was 100% and the IC50 is 34 nM. For the same compound, in series [2], the viability at 4 days, 0.01 µM stood at 60%; the viability at 4 days, 0.1 µM came to 24%; the viability at 4 days, 1 µM was determined as 8%. In series [3], this compound had an AUC(0-t) of 355 µg·h/mL and a maximum concentration (Cmax) of 10900 ng/mL.

What is called inhibition is the percentage by which the read-out fell short of the control. As usually defined, the IC50 is the concentration needed to halve the response being measured. For orientation: viability means the share of living cells, or the viability signal relative to a control. What is called AUC(0-t) is the area under the concentration-time curve up to a stated or last time point. Low readings indicate low exposure, high ones high exposure. The Cmax is the maximum level reached in the sampled fluid or tissue.
